Assay type in all cases: functional
Settings in all cases: read-out: ED50 (the source's name)

One assay has as its system SK-MEL-2. As to the kind of experiment: Cytotoxicity against human SK-MEL-2 cells.
In the next assay the test system is A549. As to the kind of experiment: Cytotoxicity against human A549 cells.
The subject of a further assay is XF498. The assay is described as follows: Cytotoxicity against human XF498 cells.
In another assay the test system is SK-OV-3. As to the kind of experiment: Cytotoxicity against human SKOV3 cells.
A further assay relates to HCT-15. The assay is described as follows: Cytotoxicity against human HCT-15 cells.

Converted amounts (≈) assume the structure as drawn.

Consider `CC(C)=C[C@@H](C)[C@H]1CC[C@@H]2[C@]1(C)CC[C@H]1[C@]23C=C[C@]2(CCCC[C@]12C)OO3`, for which the EC50 in the assay on SK-MEL-2 is 25.9 µg/mL (≈ 69.9 µM); in the assay on A549, 30 µg/mL (≈ 81 µM); with XF498 it was greater than 30 µg/mL; with SK-OV-3, 19.4 µg/mL (≈ 52.4 µM); in the assay with HCT-15, 21.4 µg/mL (≈ 57.7 µM).

`CC(C)[C@@H](C)/C=C/[C@@H](C)[C@H]1CC[C@@H]2[C@]1(C)CC[C@H]1[C@]23C=C[C@]2(CCCC[C@]12C)OO3`: the EC50 with SK-MEL-2 came to 19.4 µg/mL (≈ 47 µM); in the assay with A549, 17.5 µg/mL (≈ 42.4 µM); in the assay on XF498 it was 24.7 µg/mL (≈ 59.9 µM); in the assay on SK-OV-3, 17.8 µg/mL (≈ 43.1 µM); with HCT-15 it was 21.1 µg/mL (≈ 51.1 µM).

For `CC(C)C/C=C/[C@@H](C)[C@H]1CC[C@H]2C3=C(CC[C@]12C)[C@@]1(C)CC[C@H](O)CC1=CC3=O`, the EC50 with SK-MEL-2 is greater than 30 µg/mL; in the assay on A549 it was greater than 30 µg/mL; in the assay on XF498, greater than 30 µg/mL; with SK-OV-3, greater than 30 µg/mL; in the assay on HCT-15, 38.4 µg/mL (≈ 96.8 µM).

With `CC(C)[C@@H](C)/C=C/[C@@H](C)[C@H]1CCC2=C3[C@H](O)[C@@H]4O[C@@]45C[C@@H](O)CC[C@]5(C)[C@H]3CC[C@@]21C`, the EC50 with SK-MEL-2 is greater than 30 µg/mL; in the assay on A549, greater than 30 µg/mL; with XF498, greater than 30 µg/mL; in the assay on SK-OV-3, 17.9 µg/mL (≈ 41.8 µM); with HCT-15 it was 17.9 µg/mL (≈ 41.8 µM).

In the case of `CC(C)C/C=C/[C@@H](C)[C@H]1CC[C@@H]2[C@]1(C)CC=C1[C@]23C=C[C@]2(CCCC[C@]12C)OO3`, the EC50 with SK-MEL-2 is 5.2 µg/mL (≈ 13.1 µM); in the assay on A549, 6.3 µg/mL (≈ 15.9 µM); in the assay with XF498, 11.4 µg/mL (≈ 28.7 µM); with SK-OV-3, 6.3 µg/mL (≈ 15.9 µM); with HCT-15, 4.7 µg/mL (≈ 11.9 µM).

For `COc1cccc2c1C(=O)c1c(O)c3c(c(O)c1C2=O)C[C@@](O)(C(=O)CO)C[C@@H]3O[C@H]1C[C@H](N)[C@H](O)[C@H](C)O1` [DOXORUBICIN], the EC50 in the assay with SK-MEL-2 was determined as 0.08 µg/mL (≈ 0.147 µM); with A549 it was 0.08 µg/mL (≈ 0.147 µM); in the assay with XF498 it was 0.07 µg/mL (≈ 0.129 µM); in the assay on SK-OV-3 it was 0.19 µg/mL (≈ 0.35 µM); with HCT-15, 0.13 µg/mL (≈ 0.239 µM).

As to `CCC(C)/C=C/[C@@H](C)[C@H]1CC[C@@H]2[C@]1(C)CC=C1[C@]23C=C[C@]2(CCCC[C@]12C)OO3` (stereo not given in full) [TOPSENTISTEROL A3], the EC50 stood at 4.6 µg/mL (≈ 11.6 µM) in the assay with SK-MEL-2; 5.4 µg/mL (≈ 13.6 µM) in the assay on A549; 6.2 µg/mL (≈ 15.6 µM) with XF498; 7.1 µg/mL (≈ 17.9 µM) in the assay on SK-OV-3; 4.2 µg/mL (≈ 10.6 µM) in the assay with HCT-15.

On to `CC(C)[C@H](C)/C=C/[C@@H](C)[C@H]1CC[C@H]2C3=C(CC[C@]12C)[C@@]1(C)CC[C@H](O)C[C@@]12O[C@H]2[C@H]3O` [TOPSENTISTEROL B4], for which the EC50 in the assay with SK-MEL-2 is 11.3 µg/mL (≈ 26.4 µM); with A549, 9.7 µg/mL (≈ 22.6 µM); in the assay on XF498, 19 µg/mL (≈ 44.3 µM); in the assay with SK-OV-3 it was 7.8 µg/mL (≈ 18.2 µM); with HCT-15, 14.1 µg/mL (≈ 32.9 µM).

For `CC(C)[C@H](C)/C=C/[C@@H](C)[C@H]1CCC2=C3[C@H](O)[C@@H]4O[C@@]45C[C@@H](O)CC[C@]5(C)[C@H]3CC[C@@]21C` [TOPSENTISTEROL B5], the EC50 is 5.5 µg/mL (≈ 12.8 µM) in the assay with SK-MEL-2; 13.9 µg/mL (≈ 32.4 µM) in the assay on A549; greater than 30 µg/mL with XF498; 7.9 µg/mL (≈ 18.4 µM) in the assay with SK-OV-3; 18.4 µg/mL (≈ 42.9 µM) with HCT-15.

`C[C@H](CC[C@@H](C)[C@H]1CC[C@H]2C3=CC(=O)[C@@]4(O)C[C@@H](O)CC[C@]4(C)[C@@]3(O)CC[C@]12C)[C@@H]1C[C@H]1C` [TOPSENTISTEROL C1]: the EC50 with SK-MEL-2 came out at 11.3 µg/mL (≈ 24.6 µM); in the assay on A549, 7.7 µg/mL (≈ 16.8 µM); in the assay with XF498, 17.7 µg/mL (≈ 38.6 µM); in the assay with SK-OV-3, 4.2 µg/mL (≈ 9.16 µM); in the assay with HCT-15 it was 6.1 µg/mL (≈ 13.3 µM).

As to `CO[C@@H]1C=C2[C@@H]3CC[C@H]([C@H](C)/C=C/[C@@H](C)C(C)C)[C@@]3(C)CC[C@]2(O)[C@@]2(C)CC[C@H](O)C[C@]12O` [TOPSENTISTEROL C3], the EC50 with SK-MEL-2 stood at 11.5 µg/mL (≈ 25 µM); in the assay with A549, 5.6 µg/mL (≈ 12.2 µM); in the assay on XF498, 4.7 µg/mL (≈ 10.2 µM); in the assay with SK-OV-3 it was 7.8 µg/mL (≈ 16.9 µM); in the assay on HCT-15, 4.3 µg/mL (≈ 9.33 µM).

`CC(C)[C@H](C)/C=C/[C@@H](C)[C@H]1CC[C@H]2C3=C(CC[C@]12C)[C@@]1(C)CC[C@H](O)CC1=CC3=O` [TOPSENTISTEROL D3]: the EC50 with SK-MEL-2 is 24.5 µg/mL (≈ 59.7 µM); in the assay on A549, greater than 30 µg/mL; in the assay on XF498 it was greater than 30 µg/mL; with SK-OV-3, greater than 30 µg/mL; with HCT-15, 33.6 µg/mL (≈ 81.8 µM).

These data come from ChEMBL document CHEMBL1158132, “26,27-cyclosterols and other polyoxygenated sterols from a marine sponge Topsentia sp” (2006).
